ChEMBL document CHEMBL1135861, “The discovery of novel small molecule non-peptide gonadotropin releasing hormone (GnRH) receptor antagonists” (Bioorg Med Chem Lett, 2002)

Assays:
[1] = molecular target: T1, Gonadotropin-releasing hormone receptor (Homo sapiens, UniProt P30968); assay: In vitro binding affinity to human gonadotropin-releasing hormone receptor
T1 sequence (P30968 whole entry): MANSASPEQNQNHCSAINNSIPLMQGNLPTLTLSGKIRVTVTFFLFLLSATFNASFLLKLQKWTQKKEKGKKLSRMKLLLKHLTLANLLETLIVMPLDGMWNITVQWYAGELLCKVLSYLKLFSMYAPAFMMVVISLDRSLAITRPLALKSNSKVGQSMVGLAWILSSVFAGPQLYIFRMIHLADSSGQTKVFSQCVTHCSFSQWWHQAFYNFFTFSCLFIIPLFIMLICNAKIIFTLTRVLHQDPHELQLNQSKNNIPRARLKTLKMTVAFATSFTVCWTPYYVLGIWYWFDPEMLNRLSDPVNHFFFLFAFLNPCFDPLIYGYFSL

[2] = molecular target: T2, Gonadotropin-releasing hormone receptor (Rattus norvegicus, UniProt P30969); assay: Binding affinity to rat gonadotropin-releasing hormone receptor
T2 sequence (P30969 whole entry): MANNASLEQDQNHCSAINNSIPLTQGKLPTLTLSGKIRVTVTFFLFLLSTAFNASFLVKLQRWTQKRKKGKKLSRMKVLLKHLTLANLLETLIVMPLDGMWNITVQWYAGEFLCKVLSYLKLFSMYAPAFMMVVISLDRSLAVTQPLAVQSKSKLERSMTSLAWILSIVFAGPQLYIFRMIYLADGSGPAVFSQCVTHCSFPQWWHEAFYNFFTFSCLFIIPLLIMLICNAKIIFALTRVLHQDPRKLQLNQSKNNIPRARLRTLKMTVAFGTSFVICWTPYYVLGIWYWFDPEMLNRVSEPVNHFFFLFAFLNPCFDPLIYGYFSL

SMILES	Ki [1] [nM]	Ki [2] [nM]
Cc1cc2c(cc1Cc1ccc(C(=O)NCC3CCNCC3)o1)C(C)(C)CCC2(C)C	700	5210
Cc1ccc(CNC(=O)c2ccc(Cc3cc4c(cc3C)C(C)(C)CCC4(C)C)o2)cc1	83	60
Cc1cc2c(cc1Cc1ccc(C(=O)NC[C@H]3CC[C@H](CNC(=N)N)CC3)o1)C(C)(C)CCC2(C)C	16	385
Cc1cc2c(cc1Cc1ccc(C(=O)NCC3CCC(C#N)CC3)o1)C(C)(C)CCC2(C)C (stereo not drawn)	17	560
Cc1cc2c(cc1Cc1ccc(C(=O)NCC3CCC(CNCc4c(C)noc4C)CC3)o1)C(C)(C)CCC2(C)C (stereo not drawn)	180	1200
Cc1cc2c(cc1Cc1ccc(C(=O)NCC3CCC(CNCc4cc(=O)[nH]c(=O)[nH]4)CC3)o1)C(C)(C)CCC2(C)C (stereo not drawn)	24	865
Cc1cc2c(cc1Cc1ccc(C(=O)NCC3CCC(CNC(=N)N)CC3)o1)C(C)(C)CCC2(C)C (stereo not drawn)	40	520
Cc1cc2c(cc1Cc1ccc(C(=O)NCC3CCCC(CNC(=O)C(F)(F)F)C3)o1)C(C)(C)CCC2(C)C (stereo not drawn)	20	250
Cc1cc2c(cc1Cc1ccc(C(=O)NCC3CCCCC3)o1)C(C)(C)CCC2(C)C	180	1550
Cc1cc2c(cc1Cc1ccc(C(=O)NCc3ccc(CN)cc3)o1)C(C)(C)CCC2(C)C	140	280
Cc1cc2c(cc1Cc1ccc(C(=O)NCC3CCN(C(=N)N)CC3)o1)C(C)(C)CCC2(C)C	220	2040
Cc1cc2c(cc1Cc1ccc(C(=O)NCc3cccc(CN)c3)o1)C(C)(C)CCC2(C)C	91	94
Cc1cc2c(cc1Cc1ccc(C(=O)NCc3ccccc3)o1)C(C)(C)CCC2(C)C	102	240
Cc1cc2c(cc1Cc1ccc(C(=O)NCC3CCCC(CN)C3)o1)C(C)(C)CCC2(C)C (stereo not drawn)	174	890
Cc1cc2c(cc1Cc1ccc(C(=O)NCC3CCC(CNC(=O)C(F)(F)F)CC3)o1)C(C)(C)CCC2(C)C (stereo not drawn)	66	2720
Cc1cc2c(cc1Cc1ccc(C(=O)NCC3CCN(C(=O)OC(C)(C)C)CC3)o1)C(C)(C)CCC2(C)C	54	3260
COC(=O)[C@H]1CC[C@H](CNC(=O)c2ccc(Cc3cc4c(cc3C)C(C)(C)CCC4(C)C)o2)CC1	24	830
Cc1cc2c(cc1Cc1ccc(C(=O)NC[C@H]3CC[C@H](C(N)=O)CC3)o1)C(C)(C)CCC2(C)C	13	270
Cc1cc2c(cc1Cc1ccc(C(=O)NC[C@H]3CC[C@H](C(=O)O)CC3)o1)C(C)(C)CCC2(C)C	250	3000
Cc1cc2c(cc1Cc1ccc(C(=O)NC[C@H]3CC[C@@H](CNC(=N)N)CC3)o1)C(C)(C)CCC2(C)C	40	730
Cc1cnc(CNC(=O)c2ccc(Cc3cc4c(cc3C)C(C)(C)CCC4(C)C)o2)cn1	56	55
Cc1cc2c(cc1Cc1ccc(C(=O)NCC3CCC(CN)CC3)o1)C(C)(C)CCC2(C)C (stereo not drawn)	42	730
CCOC(=O)[C@H]1CC[C@H](CNC(=O)c2ccc(Cc3cc4c(cc3C)C(C)(C)CCC4(C)C)o2)CC1	51	2730
Cc1cc2c(cc1Cc1ccc(C(=O)NCc3ccc(CN(C)C)cc3)o1)C(C)(C)CCC2(C)C	79	140
